Results taken from US8148387B2, “AKT and P70 S6 kinase inhibitors” (Eli Lilly and Company, priority 2008, dated 2012).

Tests used:
[1] = molecular target: T1, AKT1 (Homo sapiens, UniProt P31749); assay: AKT1 In Vitro Enzyme Assay (Transcreener Kinase ADP-FP); format: biochemical; conditions: 20 micromolar ATP; read-out: IC50 against AKT1
T1 construct: His tag; host or cells: insect cells
Procedure: Compound IC50 values against AKT1 target are determined using the AKT1 Transcreener™ Kinase ADP-FP Assay. This assay assesses the activity of AKT1 in the presence of compound inhibitors by measuring the concentration of ADP formed in a kinase reaction. The kinase reactions (25 μL reaction volumes) are performed in 96-well half-area black polystyrene plates. ATP is added to start the reactions. Final reaction conditions are 56 millimolar HEPES pH 7.4, 0.008% TRITON™ X-100, 5 millimolar magnesium chloride, 30 micromolar Crosstide peptide, 20 micromolar ATP, hAKT1 Human Recombiant, V-AKT Murine Thymoma Viral Oncogene Homolog 1, histidine-tagged, expressed in insect cells, 4% DMSO and serial dilutions of compound (diluted 1:3 from 20,000 to 1 nanomolar). […] Quenched reactions are incubated for 4-16 hours, and then read in a Tecan Ultra Evolution plate reader in Fluorescence Polarization mode using polarizing filters of Ex612nm and Em633nm wavelength. […] The IC50 value for each compound is derived using percent inhibition data which is calculated using the micromolar ADP reaction data relative to on-plate controls (active enzyme versus 100 millimolar inhibited enzyme controls). […]

[2] = tested on: pAKT S473; assay: p70 S6K/AKT In Vivo Target Inhibition, U87MG xenograft, pAKT; design: species or system athymic nude mice; conditions: Mus musculus, U-87 MG, IV Dose 12.5 mpk, U87MG tumors
Procedure: (§1) U87MG human glioblastoma cells (5×106) are subcutaneously implanted into the flank of athymic nude mice in 0.2 mL of matrigel. Two weeks post-implantation, mice are dosed orally or parenterally according to a time course, single dose/single time point, or dose response protocol for the determination of TMED50 (threshold minimum effective dose). Tumors are flash frozen at harvest and blood is collected for the determination of parent compound plasma exposure and the calculation of TMEC50 (threshold minimum effective concentration) in the case of dose response studies. Tumors or tissues are pulverized in liquid N2 and lysed in 400 μL of XY Lysis Buffer (10 μg/mL Leupeptin, 10 μg/mL Trypsin-Chymotrypsin Inhibitor, 10 μg/mL Tosyl phenyl-alanyl chloromethyl ketone, 10 μg/mL Aprotinin, 60 mM Beta-Glycerol Phosphate, 1% Triton X100, 25 mM Tris pH 7.5, 2.5 mM Pyrophosphate, 150 mM NaCl, 2 mM p-tosyl-L-arginine methyl ester, 15 mM para-nitrophenyl phosphate, 5 mM Benzamidine, 1 mM Na Vanadate, 10 mM NaF, 50 μg/mL phenyl-methane sulfonyl fluoride, 1 mM 1,4-Dithiothreitol (DTT), 15 mM EDTA pH 8.0, 5 mM EGTA pH 8.0, 1 μM Microcystin, 1 μM Okadaic Acid, and 1 Roche Complete protease inhibitor mini-tablet per 10 mL) using Lysing Matrix D tubes (MP Biomedicals, Solon, Ohio, cat#6913-500) and a BIO101 Thermo Savant Fast Prep FP12. Lysates are aliquoted and either assayed immediately or stored at −80° C. for later testing. In Vivo Target Inhibition of p70 S6K and AKT is measured utilizing Meso Scale Discovery (Gaithersburg, Md.) ELISA technology to assess effects on phosphorylation of the serine 240/244 site of the downstream effector S6RP. Phosphorylation of p70 S6K(T389), AKT(5473) and GSK3β(S9) is also assessed using this technology in a multiplex format. In summary, 20 μg of lysate is added to carbon electrode containing 96-well plates pre-spotted with the appropriate capture antibodies. The protein of interest is probed using a ruthenium labeled detection antibody. Upon the passage of current over the electrode in the presence of read buffer containing the co-reactant TPA, electro-chemiluminescence results in the generation of light which is quantified and recorded using the MSD Sector 6000 instrument. For each study, percent inhibitions are calculated relative to the vehicle control group and ANOVA analysis is performed using the JMP software package for the determination of statistical significance.

[3] = tested on: Phosphorylation of p70 S6K(T389); assay: p70 S6K/AKT In Vivo Target Inhibition, U87MG xenograft, p-p70 S6K; design: species or system athymic nude mice; conditions: Mus musculus, U-87 MG, IV Dose 12.5 mpk, U87MG tumors
Procedure: as §1

[4] = molecular target: T2, p70 S6 Kinase (Homo sapiens, UniProt P23443, T412E); assay: p70 S6 Kinase In Vitro Enzyme Assay (Transcreener Kinase ADP-FP); format: biochemical; conditions: 25 micromolar ATP; read-out: IC50 against p70 S6 Kinase
T2 construct: amino acids 1-421, T412E; His tag (N)
T2 sequence (P23443 1-421 T412E): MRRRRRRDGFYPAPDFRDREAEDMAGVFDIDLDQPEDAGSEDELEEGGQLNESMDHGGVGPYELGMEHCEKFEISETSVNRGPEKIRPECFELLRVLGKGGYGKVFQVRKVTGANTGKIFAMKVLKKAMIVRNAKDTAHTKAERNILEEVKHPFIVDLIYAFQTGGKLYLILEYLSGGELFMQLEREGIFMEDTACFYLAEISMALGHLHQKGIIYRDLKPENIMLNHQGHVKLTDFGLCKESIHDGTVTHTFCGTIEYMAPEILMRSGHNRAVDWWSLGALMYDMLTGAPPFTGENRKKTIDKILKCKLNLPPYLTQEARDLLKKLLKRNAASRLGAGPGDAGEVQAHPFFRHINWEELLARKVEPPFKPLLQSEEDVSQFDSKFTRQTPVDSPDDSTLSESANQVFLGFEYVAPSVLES
Procedure: Compound IC50 values against p70 S6 Kinase target are determined using the p70 S6 Transcreener™ Kinase ADP-FP Assay. This assay assesses the activity of p70 S6 kinase in the presence of compound inhibitors by measuring the concentration of adenosine diphosphate (ADP) formed in a kinase reaction. The kinase reactions (25 μL reaction volumes) are performed in 96-well half-area black polystyrene plates. Adenosine triphosphate (ATP) is added to start the reactions. Final reaction conditions are 10 millimolar N-2-hydroxyethyl-piperazine-N′-2-ethanesulfonic acid (HEPES) pH 7.5, 0.005% TRITON™ X-100, 0.082 millimolar ethyleneglycol tetraacetic acid (EGTA), 1 millimolar dithiothreitol, 10 millimolar magnesium chloride, 4 micromolar substrate peptide, 25 micromolar ATP, active p70 S6 Kinase (Human recombinant, amino acids 1-421, T412E, N-terminal histidine-tagged), 4% DMSO and serial dilutions of compound (diluted 1:3 from 20,000 to 1 nanomolar). […] Quenched reactions are incubated for 4-16 hours, and then read in a Tecan Ultra Evolution plate reader in Fluorescence Polarization mode using polarizing filters of Ex612nm and Em633nm wavelength. […] The IC50 value for each compound is derived using percent inhibition data which is calculated using the micromolar ADP reaction data relative to on-plate controls (active enzyme versus 100 millimolar inhibited enzyme controls). […]

T1 sequence (P31749 whole entry): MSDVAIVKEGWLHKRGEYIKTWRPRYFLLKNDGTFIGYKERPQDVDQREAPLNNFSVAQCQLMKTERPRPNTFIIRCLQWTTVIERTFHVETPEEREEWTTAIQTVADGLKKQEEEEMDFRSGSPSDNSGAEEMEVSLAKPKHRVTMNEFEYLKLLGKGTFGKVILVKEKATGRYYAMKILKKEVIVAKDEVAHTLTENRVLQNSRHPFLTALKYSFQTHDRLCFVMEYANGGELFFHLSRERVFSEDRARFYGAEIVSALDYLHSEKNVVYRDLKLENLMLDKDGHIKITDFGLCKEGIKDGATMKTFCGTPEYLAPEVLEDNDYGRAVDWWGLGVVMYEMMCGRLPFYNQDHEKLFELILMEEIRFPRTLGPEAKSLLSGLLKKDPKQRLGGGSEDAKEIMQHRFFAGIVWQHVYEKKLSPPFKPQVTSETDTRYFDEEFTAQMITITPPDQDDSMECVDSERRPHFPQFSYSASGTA

## CN(C)CCn1cc(-c2ccc(F)c(C(F)(F)F)c2)nc1C1CCN(c2ncnc3c2C(C)(C)C(=O)N3)CC1 [Example 31]
[1]
  IC50: 6 nM
[2]; 1 hr post IV dose
  inhibition at 12.5 mg/kg: 4%
[2]; 2 hr post IV dose
  inhibition at 12.5 mg/kg: -22.3%
[2]; 4 hr post IV dose
  inhibition at 12.5 mg/kg: -19.2%
[2]; 6 hr post IV dose
  inhibition at 12.5 mg/kg: -26.3%
[2]; 8 hr post IV dose
  inhibition at 12.5 mg/kg: -9.4%
[2]; 24 hr post IV dose
  inhibition at 12.5 mg/kg: 22.6%
[3]; 1 hr post IV dose
  inhibition at 12.5 mg/kg: 77.3%
[3]; 2 hr post IV dose
  inhibition at 12.5 mg/kg: 76.1%
[3]; 4 hr post IV dose
  inhibition at 12.5 mg/kg: 76.1%
[3]; 6 hr post IV dose
  inhibition at 12.5 mg/kg: 76.1%
[3]; 8 hr post IV dose
  inhibition at 12.5 mg/kg: 70.7%
[3]; 24 hr post IV dose
  inhibition at 12.5 mg/kg: 61.6%
[4]
  IC50: 7 nM
